Assay results taken from the supplement of paper PMC10307832.

What was measured:
Assay in all cases: relative viability (nuclei count vs DMSO), 5 days (fraction); higher = more cells survive
[1] = compound: CC(C)(C)c1nc(-c2cccc(NS(=O)(=O)c3c(F)cccc3F)c2F)c(-c2ccnc(N)n2)s1 [Dabrafenib] + O=C(c1cc(Cc2n[nH]c(=O)c3ccccc23)ccc1F)N1CCN(C(=O)C2CC2)CC1 [Olaparib] (partner 8 µM)
In short: (§1)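 Lung cancer cell lines were seeded in 1536-well plates and dosed by pin tool the next day, with either a single drug or a fixed anchor-drug dose combined with five library-drug doses (not always all listed) spaced in √10 steps. Five days later, one step fixed the cells and stained their nuclei (final 0.05% Triton X-100, 1% formaldehyde, 1 ug/ml Hoechst), and nuclei were counted on 4× images. Relative viability is the nuclei count in treated wells divided by the count in vehicle wells, and each value is the median of duplicate plates.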

[2] = compound: NC(=O)c1ccc(N(C(N)=O)c2c(F)cccc2F)nc1-c1ccc(F)cc1F [VX-702] + CC(=O)Nc1cccc(-n2c(=O)n(C3CC3)c(=O)c3c(Nc4ccc(I)cc4F)n(C)c(=O)c(C)c32)c1 [Trametinib] (partner 0.02 µM)
In short: as §1

[3] = compound: NC(=O)c1ccc(N(C(N)=O)c2c(F)cccc2F)nc1-c1ccc(F)cc1F [VX-702] + COc1cccc2cc(-c3nc([C@H]4CC[C@H](C(=O)O)CC4)n4ncnc(N)c34)[nH]c12 [OSI-027] (partner 0.5 µM)
In short: as §1

[4] = compound: NC(=O)c1ccc(N(C(N)=O)c2c(F)cccc2F)nc1-c1ccc(F)cc1F [VX-702] + C[C@@H](Oc1cc(-c2cnn(C3CCNCC3)c2)cnc1N)c1c(Cl)ccc(F)c1Cl [Crizotinib] (partner 1 µM)
In short: as §1

Cell Line	relative viability ([1]; first compound 0.003 µM)	relative viability ([1]; first compound 0.009487 µM)	relative viability ([1]; first compound 0.03 µM)	relative viability ([1]; first compound 0.09487 µM)	relative viability ([1]; first compound 0.3 µM)	relative viability ([2]; first compound 0.02 µM)	relative viability ([2]; first compound 0.2 µM)	relative viability ([2]; first compound 0.6325 µM)	relative viability ([2]; first compound 2 µM)	relative viability ([3]; first compound 0.02 µM)	relative viability ([3]; first compound 0.2 µM)	relative viability ([3]; first compound 0.6325 µM)	relative viability ([3]; first compound 2 µM)	relative viability ([4]; first compound 0.02 µM)	relative viability ([4]; first compound 0.2 µM)	relative viability ([4]; first compound 0.6325 µM)	relative viability ([4]; first compound 2 µM)
NCI-H460	0.493	0.398	0.397	0.362	0.385	0.209	0.172	0.166	0.0854	0.712	0.644	0.693	0.55	0.835	0.951	0.958	1.05
NCI-H520	0.312	0.317	0.305	0.271	0.354	0.712	0.799	0.589	0.649	0.321	0.287	0.268	0.23	0.887	0.687	0.784	0.966
NCI-H596	–	0.68	0.675	0.651	0.752	0.908	0.832	0.835	0.886	0.807	0.737	0.797	0.823	0.914	0.986	1.02	1.19
NCI-H647	0.661	0.558	0.449	0.557	0.607	0.555	0.571	0.497	0.678	0.719	0.997	0.709	0.662	1.14	1	1.12	1.05
NCI-H650	–	0.381	0.341	0.189	0.287	0.92	0.978	1.1	1.08	0.562	–	0.567	0.595	0.669	–	0.761	1.04
NCI-H661	0.739	0.685	0.746	0.75	0.773	0.682	0.599	0.637	0.71	0.708	0.702	0.748	0.893	1.08	0.977	0.939	1.11
NCI-H727	0.554	0.656	–	0.612	0.796	0.387	0.381	0.382	0.359	0.721	0.614	0.543	0.642	0.826	0.745	0.841	0.961
NCI-H838	0.772	0.792	0.735	0.68	0.873	0.535	0.521	0.525	0.6	0.394	0.356	0.448	0.409	0.779	0.755	0.807	0.976
NCI-H1355	–	0.763	0.769	0.639	0.718	0.464	0.38	0.368	0.416	0.419	0.427	0.371	0.405	1.09	1.05	1.01	1.04
NCI-H1437	0.651	0.62	0.643	0.592	0.618	0.519	0.447	0.464	0.497	0.885	0.843	0.977	0.987	0.916	0.871	0.873	1.18
NCI-H1650	0.827	0.721	0.764	0.794	1.01	0.599	0.725	0.656	0.501	0.635	0.652	0.806	0.541	1.19	1.05	1	1.24
NCI-H1651	0.177	0.186	0.176	0.147	0.165	0.747	0.822	0.819	0.884	0.733	0.685	0.786	0.652	0.79	0.889	0.831	0.935
NCI-H1666	0.783	0.753	0.776	0.746	0.799	0.89	0.819	0.883	0.739	0.937	–	0.789	0.635	1.1	0.923	1.03	1.12
NCI-H1734	–	0.69	0.504	0.465	0.557	0.734	0.683	0.544	0.68	0.635	0.591	0.527	0.45	0.593	0.55	0.573	0.71
NCI-H1755	0.845	0.819	0.788	0.859	0.886	0.841	0.799	0.838	0.869	0.857	0.829	0.721	0.718	0.919	0.784	0.894	0.972
NCI-H1792	–	0.522	0.25	0.324	0.417	0.425	0.394	0.397	0.482	0.667	0.669	0.682	0.683	1	0.913	0.992	1.17
NCI-H1915	0.276	0.233	0.214	0.215	0.268	0.324	0.294	0.302	0.319	0.642	0.587	0.595	0.67	0.868	0.845	0.913	0.944
NCI-H1944	0.402	0.41	0.382	0.393	0.402	0.426	0.401	0.398	0.378	0.396	0.398	0.39	0.206	0.963	1.01	0.985	0.829
NCI-H1975	0.723	0.758	0.706	0.681	0.718	0.383	0.35	0.29	0.329	0.753	0.756	0.829	0.779	0.919	0.982	0.889	1.14
